According to US20020015967A1, “FUNCTIONAL EXPRESSION OF ADENOSINE RECEPTORS IN YEAST” (priority 1998, published 2002):

Biological target: T1, human A3 receptor (Homo sapiens, UniProt P0DMS8)
T1 construct: expressed in transfected cells
T1 sequence (P0DMS8 1-318): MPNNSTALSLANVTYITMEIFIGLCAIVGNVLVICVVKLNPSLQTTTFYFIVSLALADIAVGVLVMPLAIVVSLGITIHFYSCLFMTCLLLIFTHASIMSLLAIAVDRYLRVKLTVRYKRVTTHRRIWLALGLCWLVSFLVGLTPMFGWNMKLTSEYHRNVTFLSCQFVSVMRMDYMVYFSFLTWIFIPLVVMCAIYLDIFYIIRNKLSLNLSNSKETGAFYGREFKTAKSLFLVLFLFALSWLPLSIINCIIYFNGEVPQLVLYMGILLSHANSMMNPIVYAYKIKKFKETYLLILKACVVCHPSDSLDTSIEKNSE
Assay: Radioligand displacement binding, [125I]AB-MECA, mammalian membranes
Settings: [125I]AB-MECA 0.75 nM; 10 ug mammalian membranes; 60 minutes room temperature; read-out: IC50 hA3R

SMILES: O=c1[nH]c(=O)c2nc3ccccc3nc2[nH]1 [Alloxozine]
- IC50: 8.22 µM
